Measurements as given in the NIST ThermoML archive (doi:10.1016/j.jct.2013.11.038).
Several values for one entry are separate records, joined by “and”; a condition that tells them apart may be missing. Equal values may be shown once.

Assays:
[1] = Molar enthalpy of transition or fusion; conditions: Crystal; DSC
[2] = Crystal; for vapor or sublimation pressure: Calculated from knudsen effusion weight loss; for Normal melting temperature: DTA
[3] = molar heat capacity at constant pressure; conditions: 101.33 kPa, Crystal, Large sample (1 g) DSC

O=C1c2ccccc2-c2cccc3cccc1c23 [7H-benz[de]anthracen-7-one]
Conditions | Molar enthalpy of transition or fusion [kcal/mol] | Normal melting temperature [°C]
[1] | 6.3 | –
[2] | – | 173.63

Conditions | molar heat capacity at constant pressure [J/K/mol] | vapor or sublimation pressure
[2], 360.04 K | – | 5.7e-06 kPa [middle of 4 runs]
[2], 369.32 K | – | 1.67e-05 kPa [middle of 4 runs]
[2], 380.12 K | – | 5.13e-05 kPa [middle of 6 runs]
[2], 390.32 K | – | 0.0001425 kPa [middle of 6 runs]
[2], 400.17 K | – | 0.0003806 kPa [middle of 7 runs]
[2], 410.37 K | – | 0.0009607 kPa [middle of 6 runs]
[3], 300.47 K | 257.2 | –
[3], 305.43 K | 262.2 | –
[3], 310.4 K | 265.7 | –
[3], 315.36 K | 270.5 | –
[3], 320.32 K | 275 | –

O=C(O)c1ccccc1 [benzoic acid]
Conditions | Molar enthalpy of transition or fusion [kcal/mol] | Normal melting temperature [°C]
[1] | 4.28 | –
[2] | – | 122.22

Conditions | molar heat capacity at constant pressure [J/K/mol] | vapor or sublimation pressure
[2], 269.3 K | – | 2.1e-06 kPa and 2.2e-06 kPa
[2], 275.04 K | – | 5.1e-06 kPa and 5e-06 kPa and 4.9e-06 kPa
[2], 281.33 K | – | 1.24e-05 kPa [middle of 4 runs]
[2], 287.28 K | – | 2.71e-05 kPa [middle of 7 runs]
[2], 293.19 K | – | 5.78e-05 kPa [middle of 6 runs]
[2], 299.18 K | – | 0.0001196 kPa [middle of 7 runs]
[2], 305.18 K | – | 0.0002454 kPa [middle of 7 runs]
[2], 311.17 K | – | 0.0004925 kPa [middle of 7 runs]
[2], 317.13 K | – | 0.0009533 kPa [middle of 6 runs]
[3], 308.15 K | 152.1 | –
[3], 318.15 K | 157.3 | –
[3], 328.15 K | 161.6 | –
[3], 338.15 K | 166.9 | –
[3], 348.15 K | 170.8 | –
[3], 358.15 K | 175.6 | –
[3], 368.15 K | 180 | –
[3], 378.15 K | 186.9 | –

O=C(Oc1ccccc1)Oc1ccccc1 [diphenyl carbonate]
[2]
Conditions | vapor or sublimation pressure
302.18 K | 2.22e-05 kPa [middle of 5 runs]
308.17 K | 5.05e-05 kPa [middle of 5 runs]
314.32 K | 0.0001144 kPa [middle of 7 runs]
320.25 K | 0.0002424 kPa [middle of 7 runs]
326.23 K | 0.0005075 kPa [middle of 7 runs]
332.24 K | 0.001043 kPa [middle of 6 runs]

CCCCCCCCCCCCCCCCCC [octadecane]
Conditions | Molar enthalpy of transition or fusion [kcal/mol] | Normal melting temperature [°C]
[1] | 14.7 | –
[2] | – | 28.31

Conditions | molar heat capacity at constant pressure, 283.85 K [J/K/mol] | molar heat capacity at constant pressure, 285.5 K [J/K/mol] | molar heat capacity at constant pressure, 287.15 K [J/K/mol] | molar heat capacity at constant pressure, 288.81 K [J/K/mol] | molar heat capacity at constant pressure, 290.46 K [J/K/mol] | vapor or sublimation pressure, 286.34 K | vapor or sublimation pressure, 289.28 K | vapor or sublimation pressure, 292.27 K | vapor or sublimation pressure, 295.17 K | vapor or sublimation pressure, 297.99 K
[2] | – | – | – | – | – | 2e-06 kPa [middle of 4 runs] | 3.1e-06 kPa [middle of 4 runs] | 5.9e-06 kPa [middle of 4 runs] | 1.02e-05 kPa and 1.07e-05 kPa and 1.01e-05 kPa | 1.9e-05 kPa [middle of 5 runs]
[3] | 448.6 | 455.2 | 460.7 | 467.3 | 472.4 | – | – | – | – | –
